Results: patent US6339064B1, “Benzylglycosylamides as inhibitors of smooth muscle cell proliferation” (American Home Products Corporation, priority 1998, dated 2002)

System: Porcine Smooth Muscle Cell
Test: Effects of compounds on cell proliferation using 3H thymidine incorporation (porcine smooth muscle cell antiproliferation)
Assay type: cell-based
Settings: for IC50: serum/growth factor stimulated cells, 24-36 h incubation; for Porcine Smooth Muscle Cell Antiproliferation, % at 50 μM: control (100%) = maximally stimulated cells
Experimental: Effects of Compounds on Cell Proliferation Using ^3H Thymidine Incorporation
Human and porcine smooth muscle cells were tested in early passage (generally passage 3-7) at sub-confluent conditions. Cultures were grown in 16 mm (24 well) multi-well culture dishes in medium 199 supplemented with 10% fetal bovine serum and 2% antibiotic/antimycotic. At sub-confluence, the cells were placed in a defined serum free medium (AIM-V; Gibco) for 24-48 h prior to initiating the experimental protocol.
Compounds were added to each well at 50 fold dilution (20 μL/well) and the plates were incubated for 24-36 h at 37° C. in 5% CO2. Compounds were initially dissolved in 50% ethanol and serially diluted into media. Compounds were routinely evaluated at concentrations from 1 to 100 μM. As a control, grade II porcine intestinal mucosal herapin (sodium salt) was routinely evaluated in all cell preparations at concentrations from 0.1 to 100 μg/mL.
At the completion of the test procedure, plates were placed on ice, washed three times with ice cold phosphate buffered saline (PBS) and incubated in ice cold 10% trichloroacetic acid (TCA) got 30 min to remove acid soluble proteins. Solution was transferred to scintillation vials containing 0.4 N HCl (500 μL/vial to neutralize NaOH) and each well was rinsed two times with water (500 μL) for a total volume of 2 mL/vial.
Data was obtained, in triplicate, for both control and experimental samples. Control (100%) data was obtained from maximally stimulated cells, as the result of growth factor or serum stimulation. Experimental data was obtained from cells maximally stimulated with growth factor or serum and treated with compound. Data are expressed as an IC50 in Table I below.

SMILES | IC50 [µM] | Porcine Smooth Muscle Cell Antiproliferation, % at 50 μM [% at 50] | other results
CC(=O)OC[C@H]1O[C@@H](NC(=O)c2ccc(Cl)c([N+](=O)[O-])c2)[C@H](OC(C)=O)[C@@H](OC(C)=O)[C@@H]1O[C@H]1O[C@H](COC(C)=O)[C@@H](OC(C)=O)[C@H](OC(C)=O)[C@H]1OC(C)=O [Example 1, N-(Hepta-O-acetyl-1-deoxy-β-D-maltosyl)-4-chloro-3-nitro-benzamide] | 21.2 | – | –
CC(=O)Nc1cc(C(=O)NC2OC(CO)C(OC3OC4COC(c5ccccc5)OC4C(O)C3O)C(O)C2O)ccc1Cl [Example 4, (R)-3-(Acetylamino)-4-chloro-N-[4-O-[4,6-O-(phenylmethylene)-α-D-glucopyranosyl]-β-D-glucopyranosyl]-benzamide] | 3.2 | – | –
O=C(NC1OC(CO)C(OC2OC3COC(c4ccccc4)OC3C(O)C2O)C(O)C1O)c1ccc(Cl)c([N+](=O)[O-])c1 [Example 5, (R)-4-chloro-3-nitro-N-[4-O-[4,6-O-(phenylmethylene)-α-D-glucopyranosyl]-β-D-glucopyranosyl]-benzamide] | – | 37 | –
CC(=O)Nc1cc(C(=O)NC2OC(COC(=O)c3ccccc3)C(OC3OC4COC(c5ccccc5)OC4C(O)C3O)C(O)C2O)ccc1Cl [Example 6, (R)-3-(Acetylamino)-N-[6-O-benzoyl-4-O-[4,6-O-(phenylmethylene)-α-D-glucopyranosyl]-β-D-glucopyranosyl]-4-chloro-benzamide] | 0.45 | – | –
O=C(NC1OC(COC(=O)c2ccccc2)C(OC2OC3COC(c4ccccc4)OC3C(O)C2O)C(O)C1O)c1ccc(Cl)c([N+](=O)[O-])c1 [Example 7, (R)-4-chloro-N-[(6-O-benzoyl-4′,6′-O-benzylidene)-β-D-maltosyl]-3-nitro-benzamide] | 0.55 | – | –
CC(=O)O[C@@H]1[C@@H](OC(C)=O)[C@H](NC(=O)c2ccc(Cl)c([N+](=O)[O-])c2)O[C@H](COC(=O)c2ccccc2)[C@H]1O[C@H]1O[C@@H]2COC(c3ccccc3)O[C@H]2[C@H](OC(C)=O)[C@H]1OC(C)=O (stereo partly drawn) [Example 8, 4-Chloro-N-[(2,2′,3,3′-tetra-O-acetyl-6-benzoyl-4′,6′-O benzylidene)-β-D-maltosyl]-3-nitro-benzamide] | 0.26 | – | –
CC(=O)Nc1cc(C(=O)NC2OC(COC(=O)c3ccccc3)C(OC3OC4COC(c5ccccc5)OC4C(O)C3OC(C)=O)C(O)C2OC(C)=O)ccc1Cl [Example 9, (R)-N-[2-O-Acetyl-4-O-[2-O-acetyl-4,6-O-(phenylmethylene)-α-D-glucopyranosyl]-6-O-benzoyl-β-D-glucopyranosyl]-3-(acetylamino)-4-chlorobenzamide] | 1.25 | – | –
CC(=O)OC[C@H]1O[C@@H](NC(=O)c2ccc(Cl)cc2)[C@H](OC(C)=O)[C@@H](OC(C)=O)[C@@H]1O[C@H]1O[C@H](COC(C)=O)[C@@H](OC(C)=O)[C@H](OC(C)=O)[C@H]1OC(C)=O [Example 10, N-(Hepta-O-acetyl-β-D-maltosyl)-4-chloro-benzamide] | 36.6 | – | –
O=C(N[C@@H]1O[C@H](CO)[C@@H](O[C@H]2O[C@@H]3COC(c4ccccc4)O[C@H]3[C@H](O)[C@H]2O)[C@H](O)[C@H]1O)c1ccc(Cl)cc1 (stereo partly drawn) [Example 11, N-(4′,6′-O-Benzylidene-β-D-maltosyl)-4-chloro-benzamide] | – | 15 | –
O=C(NC1OC(COC(=O)c2ccccc2)C(OC2OC3COC(c4ccccc4)OC3C(O)C2O)C(O)C1O)c1ccc(Cl)cc1 [Example 12, N-(6-O-benzoyl-4′,6′-O-benzylidene-β-D-maltosyl)-4-chloro-benzamide] | 49.2 | – | –
CC(=O)OC[C@H]1O[C@@H](NC(=O)c2ccc(OCCCC#N)c(Cl)c2)[C@H](OC(C)=O)[C@@H](OC(C)=O)[C@@H]1O[C@H]1O[C@H](COC(C)=O)[C@@H](OC(C)=O)[C@H](OC(C)=O)[C@H]1OC(C)=O [Example 13] | 32.8 | – | –
CC(=O)OC[C@H]1O[C@H](NC(=O)c2ccc(OCCCC#N)c(Cl)c2)[C@H](OC(C)=O)[C@@H](OC(C)=O)[C@@H]1O[C@H]1O[C@H](COC(C)=O)[C@@H](OC(C)=O)[C@H](OC(C)=O)[C@H]1OC(C)=O [Example 14] | 51.3 | – | –
N#CCCCOc1ccc(C(=O)NC2OC(CO)C(OC3OC4COC(c5ccccc5)OC4C(O)C3O)C(O)C2O)cc1Cl [Example 15, N-(4′,6′-O-Benzylidene-β-D-maltosyl)-3-chloro-4-(4-nitrilo-butoxy)-benzamide] | – | 30 | –
N#CCCCOc1ccc(C(=O)NC2OC(COC(=O)c3ccccc3)C(OC3OC4COC(c5ccccc5)OC4C(O)C3O)C(O)C2O)cc1Cl [Example 16, N-(6-O-Benzoyl-4′,6′-O-benzylidene-β-D-maltosyl)-3-chloro-4-(4-nitrilo-butoxy)-phenyl amide] | 0.27 | – | –
CC(=O)OC1C(NC(=O)c2ccc(OCCCC#N)c(Cl)c2)OC(COC(=O)c2ccccc2)C(OC2OC3COC(c4ccccc4)OC3C(OC(C)=O)C2OC(C)=O)C1OC(C)=O [Example 17, N-(2,2′,3,3′-tetra-O-Acetyl-6-O-benzoyl-4′,6′-O-benzylidene-β-D-maltosyl)-3-chloro-4-(4-nitrilo-butoxy)-benzamide] | – | 33 | –
CCCCOc1ccc(C(=O)N[C@@H]2O[C@H](COC(C)=O)[C@@H](O[C@H]3O[C@H](COC(C)=O)[C@@H](OC(C)=O)[C@H](OC(C)=O)[C@H]3OC(C)=O)[C@H](OC(C)=O)[C@H]2OC(C)=O)cc1Cl [Example 18, 4-butoxy-3-chloro-N-[2,3,6-tri-O-acetyl-4-O-(2,3,4,6-tetra-O-acetyl-α-D-glucopyranosyl)-β-D-glucopyranosyl]benzamide] | – | – | IC50 (Sus scrofa): 3.5 µM
CCCCOc1ccc(C(=O)NC2OC(CO)C(OC3OC4COC(c5ccccc5)OC4C(O)C3O)C(O)C2O)cc1Cl.O [Example 19, 4-Butoxy-3-chloro-N-[(4′,6′-O-benzylidene)-β-D-maltosyl]-benzamide hydrate] | – | 35 | –
CCCCOc1ccc(C(=O)NC2OC(COC(=O)c3ccccc3)C(OC3OC4COC(c5ccccc5)OC4C(O)C3O)C(O)C2O)cc1Cl [Example 20, 4-Butoxy-3-chloro-N-[(6-O-benzoyl-4′,6′-O-benzylidene)-β-D-maltosyl]-benzamide] | 3.14 | – | –
CCCCOc1ccc(C(=O)N[C@@H]2O[C@H](COC(=O)c3ccccc3)[C@@H](O[C@H]3O[C@@H]4COC(c5ccccc5)O[C@H]4[C@H](OC(C)=O)[C@H]3OC(C)=O)[C@H](OC(C)=O)[C@H]2OC(C)=O)cc1Cl (stereo partly drawn) [Example 21, 4-Butoxy-3-chloro-N-[(2,3,2′,3′-tetra-O-acetyl-6-O-benzoyl-4′,6′-O-benzylidene)-β-D-maltosyl]-benzamide] | 9.8 | – | –
COc1cc(C(=O)NC2OC(CO)C(OC3OC4COC(c5ccccc5)OC4C(O)C3O)C(O)C2O)ccc1Cl [Example 23, N-(4′,6′-O-Benzylidene-β-D-maltosyl)-4-chloro-3-methoxy-benzamide] | – | 2 | –
COc1cc(C(=O)NC2OC(COC(=O)c3ccccc3)C(OC3OC4COC(c5ccccc5)OC4C(O)C3O)C(O)C2O)ccc1Cl [Example 24, N-(6-O-Benzoyl-4′,6′-O-benzylidene-β-D-maltosyl)-4-chloro-3-methoxy-benzamide] | 2 | – | –
CCCCOc1c(Cl)cc(C(=O)NC2OC(COC(C)=O)C(OC3OC(COC(C)=O)C(OC(C)=O)C(OC(C)=O)C3OC(C)=O)C(OC(C)=O)C2OC(C)=O)cc1OC [Example 25, N-(2,2′,3,3′,4,6,6′-hepta-O-acetyl-β-D-maltosyl]-4-butoxy-5-chloro-3-methoxy-benzamide] | 2.7 | – | –
CCCCOc1c(Cl)cc(C(=O)N[C@@H]2O[C@H](CO)[C@@H](O[C@H]3O[C@@H]4COC(c5ccccc5)O[C@H]4[C@H](O)[C@H]3O)[C@H](O)[C@H]2O)cc1OC.O (stereo partly drawn) [Example 26, 4-butoxy-3-chloro-N-[(4′,6′-O-benzylidene)-β-D-maltosyl]-5-methoxy-benzamide Hydrate] | – | 32 | –
CCCCOc1c(Cl)cc(C(=O)NC2OC(COC(=O)c3ccccc3)C(OC3OC4COC(c5ccccc5)OC4C(O)C3O)C(O)C2O)cc1OC [Example 27, N[(6-O-benzoyloxy-4′,6′-O-benzylidene)-β-D-maltosyl]-4-butoxy-3-chloro-5-methoxy-benzamide] | – | 45 | –
CC(=O)OCC1OC(NC(=O)c2ccc(OCCCC#N)c([N+](=O)[O-])c2)C(OC(C)=O)C(OC(C)=O)C1OC1OC(COC(C)=O)C(OC(C)=O)C(OC(C)=O)C1OC(C)=O (stereo not drawn) [Example 28] | – | 3 | –
N#CCCCOc1ccc(C(=O)NC2OC(CO)C(OC3OC4COC(c5ccccc5)OC4C(O)C3O)C(O)C2O)cc1[N+](=O)[O-] [Example 29, N-(4′,6′-O-Benzylidene-β-D-maltosyl)-4-(4-nitrilo-butoxy)-3-nitro-benzamide] | – | 4 | –
N#CCCCOc1ccc(C(=O)NC2OC(COC(=O)c3ccccc3)C(OC3OC4COC(c5ccccc5)OC4C(O)C3O)C(O)C2O)cc1[N+](=O)[O-] [Example 30, N-(6-O-Benzoyl-4′,6′-O-benzylidene-β-D-maltosyl)-4-(4-nitrilo-butoxy)-3-nitro-benzamide] | 1.4 | – | –
